Assay results from US5916915A, “Water-in-stable L-ascorbic acid derivative and a method for preparation thereof, and a skin-whitening cosmetic composition containing the same” (priority 1997, dated 1999).
Entries after “also recorded” stand apart in the source; their conditions may differ. Blank lines part the entries; values can stand above or below the compound they belong to.

Experiments:
[1] = Stability of AsA-APPA in pH 7 buffer at 50° C. (residual ratio by UV absorbance); assay type: physicochemical
Experimental: L-Ascorbic acid and AsA-APPA produced in Preparation Ex. 2 were dissolved in buffer solutions of pH 7 to concentrations of 50 μM, respectively, and then maintained in a thermostat of 50° C. At constant intervals, UV absorbances were measured at 259 nm for AsA-APPA and at 266 nm for L-ascorbic acid, to evaluate the stabilities of the test samples as residual ratio(%).

[2] = Stability in an aqueous base: precipitation and discoloration; assay type: physicochemical; design: key: -: No precipitation; +: Slight precipitation; ++: Some precipitation; +++: Severe precipitation; conditions: 3 g in 100 ml water
Experimental: Each 3 g of compounds of Preparation Ex. 3 and Ex. 6 and L-ascorbic acid 2-phosphate magnesium was dissolved in 100 ml of distilled water, and then maintained in a thermostat of 50° C. for 30 minutes.
Colorless or pale-yellow
+++ Severe precipitation

[3] = test system: fibroblast; assay: Proliferation of fibroblast (MTT method); assay type: cell-based; conditions: as low as, DMEM
Experimental: The skin obtained from new epidermal tissue was treated with Type 1 collagenase to remove epidermis. The obtained fibroblast was cultured on Dulbecco's Modified Eagle's Media(DMEM).
Amount of fibroblast was measured by way of MTT method.

[4] = Acute Oral Toxicity Test; assay type: in vivo, ICR mice; conditions: mouse, in vivo, po, acute oral, ICR mice, Litchfield-Wilcoxon's method; read-out: LD50 (lethal dose)
Experimental: (§1) 10 ml/kg of AsA-APPA of Preparation Ex. 2 was diluted with physiological saline to give 50% of test sample. This test sample was orally administrated into the ten(10) of ICR mice(five males and five females) weighing 20~33 g (administrated amount of AsA-APPA: 5 g/kgweight). As a control, 10 ml/kg of physiological saline was orally administrated into the ten(10) of ICR mice(five males and five females) weighing 20~33 g (administrated amount of AsA-APPA: 0 g/kgweight).
(§2) At that day, general appearance was observed every hour for 6 hours. And, from the next day to 14 days, every day, were observed general appearance(clinical symptoms), toxic symptoms, death and the like. Further, change of weight was measured at 1, 3, 7 and 14 days.
(§3) Any of the mice dead during observation period were immediately subjected to autopsy, and the survival mice were subjected to autopsy after observation period.

[5] = test system: ICR mice; assay: Acute Oral Toxicity Test; assay type: in vivo
Experimental: as §1, §2, §3

[6] = Acute Dermal Toxicity Test; assay type: in vivo, ICR mice; conditions: mouse, in vivo, topical or ocular, acute dermal, ICR mice, Litchfield-Wilcoxon's method; read-out: LD50 (lethal dose)
Experimental: as §1, with “4 ml/kg” for “10 ml/kg”, “was percutaneously” for “was orally”, “AsA-APPA: 2” for “AsA-APPA: 5”, “control, 4” for “control, 10”
(§4) Before about 24 hours, the back of each mouce was depilated in a size of 1.5×1.5 cm^2. Then, each depilated site was covered with a gauze of 1×1 cm^2 applied with one of the test and control samples, and fixed using an non-irritative tape, for 24 hours.
(§5) At that day, general appearance was observed every hour for 6 hours. And, from the next day to 14 days, every day, were observed general appearance(clinical symptoms), toxic symptoms, death and the like. Further, change of weights was measured at 1, 3, 7 and 14 days.
as §3

[7] = test system: ICR mice; assay: Acute Dermal Toxicity Test; assay type: in vivo
Experimental: as §1, with “4 ml/kg” for “10 ml/kg”, “was percutaneously” for “was orally”, “AsA-APPA: 2” for “AsA-APPA: 5”, “control, 4” for “control, 10”
as §4, §5, §3

[8] = test system: skin of New Zealand White male rabbits; assay: Primary Skin Irritation Test; assay type: in vivo; conditions: rabbit
Experimental: Test was carried out for twelve(12) of New Zealand White male rabbits whose backs were depilated before 24 hours. And, 0.1 ml of AsA-APPA of Preparation Ex. 2 was diluted with physiological saline to give 50% of test sample.
The test sample was applied to two sites (2.5 cm×2.5 cm) of the right back (amount of AsA-APPA per site: 0.5 ml). As a control, two sites (2.5 cm×2.5 cm) of the left back were treated with 1.0 ml of physiological saline. Each tested site was covered with a gauze, which was fixed using an non-irritative tape. 24 Hours later, the tested sites were washed with physiological saline.

[9] = test system: eye of New Zealand White rabbits; assay: Eye Irritation Test; assay type: in vivo; conditions: rabbit
Experimental: Test was carried out using the nine(9) of New Zealand White rabbits.
0.1 ml of AsA-APPA of Preparation Ex. 2 was diluted with physiological saline to give 10% of test sample. This test sample was dropped onto the right eye of each rabbit, taking the left eye as a control. After 20~30 seconds, only three(3) rabbits of them were washed sufficiently with the sterilized saline.

[10] = test system: skin of Guinea pigs; assay: Skin Sensitization Test (Guinea Pig Maximization test); assay type: in vivo, Guinea pigs (Hartley Albino Guinea Pig)
Experimental: Test was carried out for six(6)(three males and three females) of Guinea pigs(Hartley Albino Guinea Pig) weighing 300~360 g according to Maggnusson and Kligman's procedure (Guinea Pig Maximization test).
In order to determine the concentrations of the test samples to be applied in Induction test for light irritation and Challenge test for no irritation, for three(3) of Guinea pigs for each test, primary irritations were taken with 6.25%, 12.5% and 25.0% of the test samples, respectively. For each animal, each site (2.5×2.5 cm) of right and left of the back was treated with three concentrations of the test samples in an amount of 0.5 ml/site of AsA-APPA, and then covered with a gauze, which was fixed using an non-irritative tape, for 24 hours. Next, 0.1 ml of 25% of AsA-APPA was intradermally injected to each of two pigs(one male and one female) using 26-gauge 1/2-inched needle. 7 Days later, the same sites were depilated and pretreated with 10% of SLS in petrolatum. Then, each tested site was treated with 0.5 ml/site of AsA-APPA, and then covered with a gauze, which was fixed using an non-irritative tape, for 48 hours. 2 Weeks later, the left back of the depilated pig was treated with the test sample and the right back was treated with physiological saline. 24 Hours later, the tested sites were washed with physiological saline.
As a control, test was carried out using physiological saline, instead of the test sample, in the same procedure.

[11] = test system: skin of healthy females; assay: Human Patch Test; assay type: in vivo
Experimental: Test was carried out for thirty(30) of healthy females aging 20~30 years according to CTFA Guideline(The Cosmetic, Toiletry and Fragrance Association. Inc. Washington, D.C., 20023, 1991).
The back of the subjected was washed with 70% of ethanol and dried, and then, applied with a finn chamber containing 20 μl of patch base incorporating 10% of AsA-APPA of Preparation Ex. 2. The finn chamber was fixed to the tested site using a micropore tape. 24 hours later, the tape and the chamber were removed, and the tested site was marked with marking pen. After 24 hours or 48 hours, skin responses of the tested sites were observed and skin irritation were evaluated according to ICDRG(International Contact Dermatitis Research Group)'s criterion.
*Average Response = Grade of the sample/4(Maximum grade) × 30(Total

[12] = test system: skin of healthy females; assay: Repeat Insult Human Patch Test; assay type: in vivo
Experimental: Test was carried out for twenty(20) of healthy females aging 20~30 years according to CTFA Guideline(The Cosmetic, Toiletry and Fragrance Association. Inc. Washington, D.C., 20023, 1991).
The back of the subjected was washed with 70% of propanol and dried, and then, applied with a finn chamber containing 20 μl of patch base incorporating 10% of AsA-APPA of Preparation Ex. 2. Applications were repeated every 24 hours for 3 weeks (Induction Period). After about 2 weeks, Challenge Insult Patch was carried out. At this step, the sites tested during the induction period and new sites were applied with the patches for 48 hours. […] And, skin irritation was evaluated according to ICDRG(International Contact Dermatitis Research Group)'s criterion.

[13] = 10% AsA-APPA, text and Table 5, unit not given

time to decomposition ([1]; about, neutral aqueous solution, 50° C.): ≤ 1 h
SMILES: O=C1O[C@H]([C@@H](O)CO)C(O)=C1O [L-ascorbic acid]

Precipitation ([2]; day 1): - | Precipitation ([2]; day 3): + | Precipitation ([2]; day 5): + | Precipitation ([2]; day 7): ++ | Precipitation ([2]; day 9): ++ | Precipitation ([2]; day 11): ++ | Precipitation ([2]; day 13): +++ | Precipitation ([2]; day 15): +++ | Precipitation ([2]; day 30): +++
SMILES: O=C1O[C@H]([C@@H](O)CO)C(O)=C1OP(=O)([O-])[O-].[Mg+2] [compound 1, L-ascorbic acid 2-phosphate magnesium, reference compound]

SMILES: NCCCOP(=O)(O)OC1=C(O)[C@@H]([C@@H](O)CO)OC1=O [Prep. Ex. 3]
Precipitation ([2]; day 1): - | Precipitation ([2]; day 3): - | Precipitation ([2]; day 5): - | Precipitation ([2]; day 7): - | Precipitation ([2]; day 9): - | Precipitation ([2]; day 11): - | Precipitation ([2]; day 13): - | Precipitation ([2]; day 15): - | Precipitation ([2]; day 30): -

SMILES: NCCCOP(=O)(O)OC1=C(O)[C@@H]([C@@H](O)CO)OC1=O [AsA-APPA, 2-(3-aminopropanephosphoric acid)-L-ascorbate]
stability in neutral aqueous solution ([1]; pH 7, 50° C.): very stable | remaining at 0.5 h, 50 µM ([1]; ph 7 buffer, 30 min., pH 7, 50 μM, 50° C.): 100% | remaining at 1 h, 50 µM ([1]; ph 7 buffer, 1 hr., pH 7, 50 μM, 50° C.): 100% | remaining at 3 h, 50 µM ([1]; ph 7 buffer, 3 hr., pH 7, 50 μM, 50° C.): 100% | remaining at 6 h, 50 µM ([1]; ph 7 buffer, 6 hr., pH 7, 50 μM, 50° C.): 100% | remaining at 24 h, 50 µM ([1]; ph 7 buffer, 24 hr., pH 7, 50 μM, 50° C.): 99.1% | remaining at 144 h, 50 µM ([1]; ph 7 buffer, 6 days, pH 7, 50 μM, 50° C.): 95.5% | remaining at 240 h, 50 µM ([1]; ph 7 buffer, 10 days, pH 7, 50 μM, 50° C.): 93.5% | concentration showing effective fibroblast proliferation [3]: 10 mM | LD50 at 336 h [4]: 5000 mg/kg | Evaluation ([5]; Acute oral toxicity test): Innoxious | LD50 (lethal dose) ([5]; acute oral, ICR mice, Litchfield-Wilcoxon's method, 20160 min): > 5000 mg/kg | autopsy findings ([5]; oral, 5 g/kg): no abnormal symptom was observed | weight changes in comparison to the control ([5]; oral, 5 g/kg, 1, 3, 7 and 14 days): no significant difference | death ([5]; oral, 5 g/kg, 14 days): no dead mice | LD50 at 336 h [6]: 2000 mg/kg | Evaluation ([7]; Acute dermal toxicity test): Innoxious | LD50 (lethal dose) ([7]; acute dermal, ICR mice, Litchfield-Wilcoxon's method, 20160 min): > 2000 mg/kg | autopsy findings ([7]; percutaneous, 2 g/kg): no abnormal symptom was observed | weight changes in comparison to the control ([7]; percutaneous, 2 g/kg, 1, 3, 7 and 14 days): no significant difference | death ([7]; percutaneous, 2 g/kg, 14 days): no dead mice | Evaluation of primary skin irritation [8]: non-irritative or very low-irritative | skin abnormality such as erythema and edema ([8]; 24 or 72 hours after removing the patches): no skin abnormality such as erythema and edema was observed | Draize's PII (Primary Irritation Index) ([8]; due to erythema): 0.13 | Evaluation of eye irritation [9]: No irritative | eye irritation on cornea, iris and conjunctiva ([9]; after 24 hours or 48 hours, 10% test sample): no eye irritation on cornea, iris and conjunctiva was observed | Irritation rate of eye mucos (M.O.I) ([9]; washed and non-washed cases): 0 | Evaluation of skin sensitization ([10]; Guinea pig): very safe to the skin | skin abnormality such as erythema and edema ([10]; Guinea pig, 24, 48 and 72 hours after removing the patches): no skin abnormality such as erythema and edema was observed | Kligman's grade ([10]; Guinea pig, Kligman's criterion): 1 | Evaluation of human patch test ([11]; 10% AsA-APPA): primary irritative response, except for 1% of erythema, was hardly observed; also recorded: No irritative | Average response [11, 13]: 0.42 | Response ([11]; 24 hr., N = 30, 10% AsA-APPA, erythema): 1% | irritation after 48 hours ([11]; 48 hours, 10% AsA-APPA): all the irritation fade away | Response ([11]; 48 hr., N = 30, 10% AsA-APPA): 0% | Average response ([11]; N = 30, 10% AsA-APPA, Table 3): 0.42% | Evaluation of repeat insult human patch test ([12]; 10% AsA-APPA): No irritative | repeat irritation or sensitive irritation ([12]; 10% AsA-APPA): no repeat irritation or no sensitive irritation was observed | Average response, challenge period ([12]; 10% AsA-APPA, unit not given): 0 | Average response, induction period [12, 13]: 0.14 | Average response, challenge period ([12]; n = 20, 10% AsA-APPA, Table 4): 0% | Average response, induction period ([12]; n = 20, 10% AsA-APPA, Table 4): 0.14% | Induction Period response ([12]; week 1, 10% AsA-APPA): 1
